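All cell lines were grown in 96-well plates and treated with compound for 48 hours. Here, GI50 denotes the concentration required for 50% inhibition of growth.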 Calls of active or inactive are those of the source. Cut-off read from the data, not from the text of the source: active = GI50 up to about 1.1 µM and inactive = higher.
Assays:
Assay in all cases: NCI tumour cell line growth inhibition, 48 h
SK-OV-3 = test system: SK-OV-3
MDA-MB-435 = test system: MDA-MB-435
NCI-H226 = test system: NCI-H226
HCT-15 = test system: HCT-15
U-251 = test system: U-251
IGROV-1 = test system: IGROV-1
UACC-257 = test system: UACC-257
HCT-116 = test system: HCT-116
RPMI-8226 = test system: RPMI-8226
HT-29 = test system: HT-29
NCI-H460 = test system: NCI-H460
NCI/ADR-RES = test system: NCI/ADR-RES
A549 = test system: A549
PC-3 = test system: PC-3
TK-10 = test system: TK-10
UACC-62 = test system: UACC-62
HCC 2998 = test system: HCC 2998
SF-268 = test system: SF-268
NCI-H23 = test system: NCI-H23
T47D = test system: T47D

`CC(C)(C)OC(=O)CN1CCNCCN(CC(=O)OC(C)(C)C)CCNCC1` was tested, and the GI50 (SK-OV-3) was > 100 µM (inactive), the GI50 (MDA-MB-435) was 98.9 µM (inactive) and the GI50 (NCI-H226) was > 100 µM (inactive). For the same compound, the GI50 (HCT-15) was over 100 µM, the GI50 (U-251) was 78.2 µM (inactive) and the GI50 (IGROV-1) was > 100 µM (inactive). The GI50 (UACC-257) was > 100 µM (inactive), the GI50 (HCT-116) was 26.2 µM (inactive) and the GI50 (RPMI-8226) was 70 µM (inactive). For the same compound, the GI50 (HT-29) was 33.3 µM (inactive), the GI50 (NCI-H460) was 63.2 µM (inactive) and the GI50 (NCI/ADR-RES) was > 100 µM (inactive). For the same compound, the GI50 (A549) was 82 µM (inactive), the GI50 (PC-3) was > 100 µM (inactive) and the GI50 (TK-10) was > 100 µM (inactive). The GI50 (UACC-62) was > 100 µM (inactive) and the GI50 (HCC 2998) was > 100 µM (inactive).

In the case of `CC(C)(C)OC(=O)NC(Cc1ccc(O)cn1)C(N)=O` (stereo unspecified), the GI50 (SF-268) is reported as > 100 µM (inactive), the GI50 (MDA-MB-435) is reported as > 100 µM (inactive) and the GI50 (NCI-H226) is reported as > 100 µM (inactive). The GI50 (HCT-15) was over 100 µM, the GI50 (U-251) was > 100 µM (inactive) and the GI50 (NCI-H23) was > 100 µM (inactive). For the same compound, the GI50 (IGROV-1) was > 100 µM (inactive), the GI50 (UACC-257) was > 100 µM (inactive) and the GI50 (HCT-116) was > 100 µM (inactive). The GI50 (RPMI-8226) was > 100 µM (inactive), the GI50 (HT-29) was > 100 µM (inactive) and the GI50 (NCI-H460) was > 100 µM (inactive). The GI50 (NCI/ADR-RES) was > 100 µM (inactive), the GI50 (A549) was > 100 µM (inactive) and the GI50 (PC-3) was > 100 µM (inactive). For the same compound, the GI50 (TK-10) was > 100 µM (inactive) and the GI50 (HCC 2998) was > 100 µM (inactive).

In the case of `N#Cc1cnc(-n2[nH]c3c(c2=O)CCCC3)[nH]c1=O`, the GI50 (SK-OV-3) is reported as 75.3 µM (inactive), the GI50 (SF-268) is reported as 46 µM (inactive) and the GI50 (MDA-MB-435) is reported as 54.5 µM (inactive). The GI50 (NCI-H226) was 47.8 µM (inactive), the GI50 (HCT-15) was 41.1 µM and the GI50 (U-251) was 58.6 µM (inactive). For the same compound, the GI50 (NCI-H23) was 54.3 µM (inactive), the GI50 (IGROV-1) was > 100 µM (inactive) and the GI50 (UACC-257) was 55 µM (inactive). The GI50 (HCT-116) was 38 µM (inactive), the GI50 (RPMI-8226) was 88.3 µM (inactive) and the GI50 (HT-29) was 41.2 µM (inactive). The GI50 (NCI-H460) was 36.5 µM (inactive), the GI50 (A549) was 38.5 µM (inactive) and the GI50 (PC-3) was 59.4 µM (inactive). For the same compound, the GI50 (TK-10) was 51.5 µM (inactive), the GI50 (UACC-62) was 38.6 µM (inactive) and the GI50 (T47D) was > 100 µM (inactive).

In the case of `O=C(Cc1ccccc1)c1ccc2[nH]c(=O)oc2c1`, the GI50 (SK-OV-3) is reported as 76.2 µM (inactive), the GI50 (SF-268) is reported as 16.5 µM (inactive) and the GI50 (MDA-MB-435) is reported as 33.7 µM (inactive). For the same compound, the GI50 (NCI-H226) was 1.22 µM (inactive), the GI50 (HCT-15) was 58.9 µM and the GI50 (U-251) was 16.8 µM (inactive). For the same compound, the GI50 (NCI-H23) was 51.3 µM (inactive), the GI50 (IGROV-1) was 9.53 µM (inactive) and the GI50 (UACC-257) was 43.2 µM (inactive). The GI50 (HCT-116) was 43.8 µM (inactive), the GI50 (RPMI-8226) was 9.23 µM (inactive) and the GI50 (HT-29) was 37.5 µM (inactive). For the same compound, the GI50 (NCI-H460) was 38.8 µM (inactive), the GI50 (NCI/ADR-RES) was 18.4 µM (inactive) and the GI50 (PC-3) was 41.3 µM (inactive). The GI50 (TK-10) was 97.3 µM (inactive) and the GI50 (UACC-62) was 58.5 µM (inactive).

For `CCOC(=O)/N=C(\N)SCc1ccccc1`, the GI50 (SK-OV-3) was > 100 µM (inactive), the GI50 (SF-268) was > 100 µM (inactive) and the GI50 (NCI-H226) was 7.33 µM (inactive). For the same compound, the GI50 (HCT-15) was over 100 µM, the GI50 (U-251) was > 100 µM (inactive) and the GI50 (NCI-H23) was > 100 µM (inactive). For the same compound, the GI50 (IGROV-1) was > 100 µM (inactive), the GI50 (UACC-257) was > 100 µM (inactive) and the GI50 (HCT-116) was > 100 µM (inactive). The GI50 (RPMI-8226) was 34.3 µM (inactive), the GI50 (HT-29) was > 100 µM (inactive) and the GI50 (NCI-H460) was > 100 µM (inactive). For the same compound, the GI50 (A549) was > 100 µM (inactive), the GI50 (TK-10) was > 100 µM (inactive) and the GI50 (UACC-62) was > 100 µM (inactive). For the same compound, the GI50 (HCC 2998) was > 100 µM (inactive).

With `CC(C)C1OC(=O)C=C1Sc1ccccc1` (stereo unspecified) the GI50 (SK-OV-3) was > 100 µM (inactive), the GI50 (SF-268) was > 100 µM (inactive) and the GI50 (MDA-MB-435) was > 100 µM (inactive). For the same compound, the GI50 (NCI-H226) was > 100 µM (inactive), the GI50 (HCT-15) was over 100 µM and the GI50 (U-251) was > 100 µM (inactive). The GI50 (IGROV-1) was > 100 µM (inactive), the GI50 (UACC-257) was > 100 µM (inactive) and the GI50 (HCT-116) was > 100 µM (inactive). For the same compound, the GI50 (RPMI-8226) was > 100 µM (inactive), the GI50 (HT-29) was > 100 µM (inactive) and the GI50 (NCI-H460) was > 100 µM (inactive). The GI50 (A549) was > 100 µM (inactive), the GI50 (PC-3) was > 100 µM (inactive) and the GI50 (TK-10) was > 100 µM (inactive). For the same compound, the GI50 (UACC-62) was > 100 µM (inactive), the GI50 (HCC 2998) was > 100 µM (inactive) and the GI50 (T47D) was > 100 µM (inactive).

`COC1/C=C/O[C@@]2(C)Oc3c(C)c(O)c4c(O)c(cc(O)c4c3C2=O)NC(=O)/C(C)=C\C=C\[C@H](C)C(O)[C@@H](C)[C@@H](O)[C@@H](C)[C@H](OC(C)=O)[C@@H]1C` (stereo partly specified) was tested, and the GI50 (SK-OV-3) was 110 µM (inactive), the GI50 (SF-268) was 24.5 µM (inactive) and the GI50 (MDA-MB-435) was 19.9 µM (inactive). The GI50 (HCT-15) was 18.6 µM, the GI50 (U-251) was 44.2 µM (inactive) and the GI50 (NCI-H23) was 13.5 µM (inactive). For the same compound, the GI50 (IGROV-1) was 22.7 µM (inactive), the GI50 (UACC-257) was 13 µM (inactive) and the GI50 (HT-29) was 14.9 µM (inactive). The GI50 (NCI/ADR-RES) was 32.4 µM (inactive), the GI50 (PC-3) was 16 µM (inactive) and the GI50 (TK-10) was 20.1 µM (inactive). The GI50 (UACC-62) was 18.1 µM (inactive), the GI50 (HCC 2998) was 18.8 µM (inactive) and the GI50 (T47D) was 17.7 µM (inactive).

With `CC1=CC(=O)C(=C(C)C)CC1` the GI50 (SK-OV-3) was > 100 µM (inactive), the GI50 (SF-268) was > 100 µM (inactive) and the GI50 (MDA-MB-435) was > 100 µM (inactive). For the same compound, the GI50 (NCI-H226) was > 100 µM (inactive), the GI50 (HCT-15) was over 100 µM and the GI50 (U-251) was > 100 µM (inactive). For the same compound, the GI50 (NCI-H23) was > 100 µM (inactive), the GI50 (IGROV-1) was > 100 µM (inactive) and the GI50 (UACC-257) was > 100 µM (inactive). The GI50 (HCT-116) was > 100 µM (inactive), the GI50 (HT-29) was > 100 µM (inactive) and the GI50 (NCI-H460) was > 100 µM (inactive). For the same compound, the GI50 (NCI/ADR-RES) was > 100 µM (inactive), the GI50 (A549) was > 100 µM (inactive) and the GI50 (PC-3) was > 100 µM (inactive). For the same compound, the GI50 (TK-10) was > 100 µM (inactive), the GI50 (UACC-62) was > 100 µM (inactive) and the GI50 (T47D) was > 100 µM (inactive).
